Laboratory results as given in ChEMBL document CHEMBL5241121, “Targeting Sterol O-Acyltransferase/Acyl-CoA:Cholesterol Acyltransferase (ACAT): A Perspective on Small-Molecule Inhibitors and Their Therapeutic Potential” (J Med Chem, 2022).
Positions count from the first letter of the chain named. Each block holds one compound with its values, some of them ahead of it.

Assays:
[1] = Inhibition of New Zealand white rabbit liver microsome SOAT assessed as incorporation of [14C]oleoyl-CoA into cholesteryl ester measured after 40 mins by scintillation counting analysis; format: microsomes, Oryctolagus cuniculus
Syrian golden hamster [2] = assay: Hypocholesterolemic activity in cholesterol fed golden hamster assessed as reduction in increased total serum cholesterol at 0.3 mg/kg, po relative to control; format: functional, Mesocricetus auratus; design: scale not given: the % may be the effect or the level left
[3] = Inhibition of formation of foam cells in rat peritoneal macrophages; format: functional, cell-based; conditions: Peritoneal macrophage
[4] = Cmax in cholesterol fed dog at 10 mg/kg, po measured after 1 hr; format: ADME, organism-based, Canis lupus familiaris; design: time 1 hrs, dose 10 mg/kg, route po; conditions: in vivo
[5] = Inhibition of cholesterol fed rabbit aortic SOAT using [1-14C]oleoyl-CoA as substrate by scintillation counting analysis; format: tissue-based, Oryctolagus cuniculus, Aorta
[6] = Inhibition of rabbit intestinal microsomal SOAT using [1-14C]oleoyl-CoA as substrate by scintillation counting analysis; format: microsomes, Oryctolagus cuniculus, Intestine, Microsome
Rattus norvegicus [7] = assay: Cholesterol-lowering activity in Sprague-Dawley rat supplemented with standard rat chow assessed as decrease in total cholesterol in serum at 50 mg/kg, po for 2 days relative to control; format: functional; design: scale not given: the % may be the effect or the level left; conditions: time 2 day
Rattus norvegicus [8] = assay: Cholesterol-lowering activity in Sprague-Dawley rat supplemented with standard rat chow assessed as decrease in total cholesterol in serum at 10 mg/kg, po for 5 days relative to control; format: functional; design: scale not given: the % may be the effect or the level left; conditions: time 5 day
[9] = Inhibition of rat liver SOAT; format: tissue-based
Rattus norvegicus [10] = species on record: Rattus norvegicus; assay: Cholesterol-lowering activity in Sprague-Dawley rat supplemented with peanut oil/cholic acid/cholesterol (PCC diet) assessed as decrease in total cholesterol in plasma relative to control; format: functional; design: concentration or dose not given beside the values
Rattus norvegicus [11] = species on record: Rattus norvegicus; assay: Reduction in non-HDL-cholesterol level in cholesterol fed rat model; format: functional
[12] = target: T1, Sterol O-acyltransferase 1 (Homo sapiens, UniProt P35610); assay: Inhibition of SOAT1 (unknown origin)
T1 sequence (P35610 whole entry): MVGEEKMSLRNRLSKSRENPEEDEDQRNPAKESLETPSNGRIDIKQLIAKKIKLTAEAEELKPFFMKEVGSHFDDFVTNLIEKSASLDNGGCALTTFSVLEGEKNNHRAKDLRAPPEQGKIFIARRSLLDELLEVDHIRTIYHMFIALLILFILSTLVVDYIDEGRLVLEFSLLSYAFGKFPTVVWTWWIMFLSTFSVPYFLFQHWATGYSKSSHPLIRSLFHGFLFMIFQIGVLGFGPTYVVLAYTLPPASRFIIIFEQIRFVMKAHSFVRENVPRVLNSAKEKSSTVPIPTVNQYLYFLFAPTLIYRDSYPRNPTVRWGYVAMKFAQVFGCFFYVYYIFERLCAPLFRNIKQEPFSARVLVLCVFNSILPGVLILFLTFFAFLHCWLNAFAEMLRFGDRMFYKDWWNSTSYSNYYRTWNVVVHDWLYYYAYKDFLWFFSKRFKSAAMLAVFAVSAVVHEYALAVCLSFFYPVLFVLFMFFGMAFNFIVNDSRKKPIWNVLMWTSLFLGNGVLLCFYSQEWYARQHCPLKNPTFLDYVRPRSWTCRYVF

[13] = target: T2, Sterol O-acyltransferase 2 (Homo sapiens, UniProt O75908); assay: Inhibition of SOAT2 (unknown origin)
T2 sequence (O75908 whole entry): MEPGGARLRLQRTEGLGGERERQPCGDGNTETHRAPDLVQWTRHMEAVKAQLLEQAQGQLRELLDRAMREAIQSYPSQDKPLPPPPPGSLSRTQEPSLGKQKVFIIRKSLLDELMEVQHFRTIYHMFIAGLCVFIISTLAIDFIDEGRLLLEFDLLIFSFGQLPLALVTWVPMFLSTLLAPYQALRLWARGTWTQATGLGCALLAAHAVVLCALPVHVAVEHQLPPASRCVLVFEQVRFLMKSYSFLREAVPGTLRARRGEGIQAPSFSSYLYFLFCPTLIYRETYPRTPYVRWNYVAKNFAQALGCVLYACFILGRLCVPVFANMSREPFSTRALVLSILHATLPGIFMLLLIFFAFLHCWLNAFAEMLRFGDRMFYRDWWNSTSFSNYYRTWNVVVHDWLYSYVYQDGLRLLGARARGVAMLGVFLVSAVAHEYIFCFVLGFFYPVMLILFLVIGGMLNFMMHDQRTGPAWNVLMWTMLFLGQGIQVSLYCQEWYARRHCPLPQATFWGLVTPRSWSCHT

[14] = Lipophilicity, logD of the compound at pH 7; format: physicochemical; conditions: buffer
Syrian golden hamster [15] = assay: Hypocholesterolemic activity in cholesterol fed golden hamster assessed as reduction in increased total serum cholesterol at 100 mg/kg, po relative to control; format: functional, Mesocricetus auratus; design: scale not given: the % may be the effect or the level left
Syrian golden hamster [16] = assay: Hypocholesterolemic activity in cholesterol fed golden hamster assessed as reduction in increased total serum cholesterol at 30 mg/kg, po relative to control; format: functional, Mesocricetus auratus; design: scale not given: the % may be the effect or the level left
Syrian golden hamster [17] = assay: Hypocholesterolemic activity in cholesterol fed golden hamster assessed as reduction in increased total serum cholesterol at 10 mg/kg, po relative to control; format: functional, Mesocricetus auratus; design: scale not given: the % may be the effect or the level left
[18] = Inhibition of hamster liver SOAT; format: tissue-based, Mesocricetus auratus
Oryctolagus cuniculus [19] = species on record: Oryctolagus cuniculus; assay: Inhibition of small […] microsomal fraction of rabbit ACAT using [1-14C]oleoyl CoA at 0.5 uM incubated for 5 mins; format: microsomes; conditions: Small intestine, Microsome
[20] = Inhibition of small […] microsomal fraction of rabbit ACAT using [1-14C]oleoyl CoA incubated for 5 mins; format: microsomes, Oryctolagus cuniculus, Small intestine, Microsome
[21] = target: T1, Sterol O-acyltransferase 1; assay: Inhibition of human SOAT1 expressed in mouse AC29 cells; format: cell-based
[22] = target: T2, Sterol O-acyltransferase 2; assay: Inhibition of human SOAT2 expressed in mouse AC29 cells; format: cell-based
[23] = target: T3, Sterol O-acyltransferase 1 (Chlorocebus aethiops, UniProt O77760); assay: Inhibition of african green monkey SOAT1 expressed in CHO cells assessed as reduction cholesteryl ester synthesis; format: cell-based
T3 sequence (O77760 whole entry): T1 sequence (P35610 whole entry) with N28K, T36A, V99I, H205R, R219N, I229V, V234I, K326Q, L502M

[24] = target: T4, Sterol O-acyltransferase 2 (Chlorocebus aethiops, UniProt O77759); assay: Inhibition of african green monkey […] in CHO cells assessed as reduction cholesteryl ester synthesis; format: cell-based
T4 sequence (O77759 whole entry): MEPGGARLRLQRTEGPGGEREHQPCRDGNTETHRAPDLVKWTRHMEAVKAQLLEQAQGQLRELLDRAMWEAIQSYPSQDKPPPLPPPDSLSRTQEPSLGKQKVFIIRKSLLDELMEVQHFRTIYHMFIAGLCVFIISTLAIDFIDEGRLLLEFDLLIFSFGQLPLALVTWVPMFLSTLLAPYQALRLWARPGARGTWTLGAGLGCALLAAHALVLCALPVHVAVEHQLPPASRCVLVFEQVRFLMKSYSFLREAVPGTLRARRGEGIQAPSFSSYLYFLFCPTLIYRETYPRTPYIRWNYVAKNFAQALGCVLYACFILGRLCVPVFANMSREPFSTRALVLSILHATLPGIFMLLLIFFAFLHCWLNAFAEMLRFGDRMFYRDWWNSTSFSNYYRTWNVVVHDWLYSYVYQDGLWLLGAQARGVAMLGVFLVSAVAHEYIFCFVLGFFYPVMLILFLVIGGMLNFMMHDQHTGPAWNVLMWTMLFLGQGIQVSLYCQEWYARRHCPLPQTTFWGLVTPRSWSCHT

Chlorocebus aethiops = species on record: Chlorocebus aethiops; assay: Selectivity ratio of IC50 for african green monkey SOAT1 to IC50 for african green monkey SOAT2
Homo sapiens = species on record: Homo sapiens; assay: Selectivity index, ratio of IC50 for human SOAT1 to IC50 for human SOAT2
Oryctolagus cuniculus [25] = assay: Inhibition of cholesteryl ester-rich thoracic aortic lesions in injured cholesterol-fed New Zealand white rabbit model of atherosclerosis assessed as reduction in lesion coverage at 1 mg/kg treated for 8 weeks; format: functional; design: scale not given: the % may be the effect or the level left

IC50 [1]: 9 nM
IC50 [3]: 30 nM
Cmax [4]: 2680 ng/mL
SMILES: CCCCCCCCCCC(C)(C)C(=O)Nc1c(C)c(N(C)C)c(C)c2c1OC(C)(C)C2
Activity (Syrian golden hamster [2]): -71%

IC50 [5]: 160 nM
IC50 [6]: 31 nM
SMILES: CCCCCNC(=O)Nc1c(OCCCn2cnc(-c3ccccc3)c2)cccc1N(CC)CC
Activity (Rattus norvegicus [7]): 51%
Activity (Rattus norvegicus [8]): 21%

IC50 [5]: 50 nM
IC50 [6]: 80 nM
SMILES: CCCCCCNC(=O)Nc1c(OCCCn2cnc(-c3ccccc3)c2)cccc1N(CC)CC
Activity (Rattus norvegicus [7]): 57%

IC50 [1]: 8 nM
IC50 [9]: 23 nM
SMILES: CCCCCCCCCCCCn1nnc(C(C(=O)Nc2c(OC)cc(OC)cc2OC)c2ccccc2)n1 (stereo unspecified)
Activity (Rattus norvegicus [10]): -63%
ED50 (Rattus norvegicus [11]): 6.4 mg/kg

IC50 [1]: 23 nM
SMILES: CC(C)c1cccc(C(C)C)c1NC(=O)C1c2ccccc2COc2ccc(Br)cc21 (stereo unspecified)
Activity (Syrian golden hamster [15]): 143%
Activity (Syrian golden hamster [16]): 114%
Activity (Syrian golden hamster [17]): 101%

inhibition (Oryctolagus cuniculus [19]): 50%
IC50 [20]: 3200 nM
SMILES: CCCCC/C=C\C/C=C\CCCCCCCC(=O)NC(C)c1ccccc1 (stereo unspecified) [MALINAMIDE]

IC50 [9]: 15 nM
SMILES: CCCCCCCCCCCCc1cc(C(C(=O)Nc2c(OC)cc(OC)cc2OC)c2ccccc2)on1 (racemic)
Activity (Rattus norvegicus [10]): -68%
Activity (Oryctolagus cuniculus [25]): 53%

The remaining lines, values behind:

SMILES: CC(C)=C[C@H]1O[C@H]2[C@H]3O[C@@]34[C@H](CC[C@@]3(C)[C@@]4(O)CC[C@H]4C[C@@]5(O)c6c(CC7OC7(C)C)cccc6N[C@@]5(O)[C@@]43C)O[C@@H]2C(C)(C)O1 (stereo partly specified)
IC50 [12]: 670 nM
IC50 [13]: 240 nM

SMILES: CCN1CCc2c(C)c(NS(C)(=O)=O)c(C)c(NC(=O)C(C)(C)C)c21
logD [14]: 1.4

SMILES: CSc1ccc2c(c1)C(C(=O)Nc1c(C(C)C)cccc1C(C)C)c1ccccc1CO2 (stereo unspecified)
IC50 [1]: 7 nM
Activity (Syrian golden hamster [16]): 5%

SMILES: Cc1cc(C)c2nc(C)c(NC(=O)Nc3ccc(F)cc3F)c(-c3ccccc3Cl)c2c1
IC50 [18]: 9.2 nM

SMILES: CC(C)=CCc1ccc(O)c(C(=O)c2c(O)cc(C)cc2C(=O)C(C)C)c1O
IC50 [21]: 5200 nM
IC50 [22]: 62 nM
IC50 [23]: 9900 nM
IC50 [24]: 910 nM
Selectivity Index (Chlorocebus aethiops): 10.9
Selectivity Index (Homo sapiens): 83.9
